Molecules are shown by their SMILES.

Compound `CNc1nc(CC(=O)Nc2cccc(C(F)(F)F)c2)cs1` displayed a melting point of 153 to 155 °C.

Consider `O=P1(NCCCl)OCCCN1CCBr` (centres undefined), for which the melting point lay within 50 to 51 °C.

In turn, `Cc1cc(-c2cc(COS(C)(=O)=O)c(=O)n(Cc3ccc(Cl)cc3)n2)ccc1F` came in with a melting point of 132 to 133 °C.

Turning to `O=C1c2cc(Cl)ccc2-n2cccc21`, the melting point came to 92 °C.

In turn, `O=C(c1[nH]c2ccc(F)cc2c1Sc1ccccn1)N1CCCC1` registered a melting point of 204 to 206 °C.

The compound `Cc1cc(C(F)(F)C(F)(F)C(F)(F)C(F)(F)F)ccc1NC(=O)c1cccc(Br)c1C(=O)NC(C)C` had a melting point of 190 to 191 °C.

`COC(=O)CCCCCCCC(=O)CCC(=O)COC(C)=O` yielded a melting point of 64 to 65 °C.

Take `CC(=O)OC1CCC2(C)C(CCC3C4CCC(C(C)=O)C4(C)CC(=O)C32)C1` (centres undefined): the melting point was in the range of 130 to 133 °C.

`CCC(C)(O/N=C(\C(=O)O)c1csc(NC(c2ccccc2)(c2ccccc2)c2ccccc2)n1)C(=O)OC(C)(C)C` (centres undefined) returned a melting point of 163 to 164 °C.

Regarding `CN(C)Cc1cc(C(=O)Nc2nc(-c3ccco3)c(C(=O)c3ccccc3)s2)ccn1`, the melting point lay in the range of 205 to 209 °C.

The compound `O=Cc1c(Cl)cc(O)c(O)c1Cl` registered a melting point of 213 to 215 °C.

`CCN(CC)c1cccc(NC(=O)COC(C)=O)c1C#N` yielded a melting point of 50 to 51 °C.

`CNC(=O)N1CCc2[nH]cnc2C1C1CCCCC1` (centres undefined): the melting point stood at 250 °C.

`COc1ccc(CN(C)CCCCc2ccc(NC(=O)c3cccc4c(=O)c5cccc(OC)c5[nH]c34)cc2)cc1OC` registered a melting point of 157 °C.

In turn, `CC(=O)c1ccc2c(c1)C(C)(C)C(O)CC2(C)C` (centres undefined) had a melting point of 121 to 124 °C.

Compound `CN1N=C(c2ccc(F)cc2)c2ccc(C(F)(F)F)cc2CS1(=O)=O` came in with a melting point of 160 to 162 °C.

The compound `CCOc1ccc(-c2nc(-c3ccc(OC(C)=O)c(C(=O)O)c3)cs2)cc1OCC` had a melting point of 178 to 179 °C.

For the compound `COc1cc2c(c3c1OC(C)(C)C3)C(c1ccc(NC(=O)c3cccnc3)cc1)=NC(C)(C)C2`, the melting point lay within 130 to 137 °C.

Compound `CCn1cc(-c2ccc3c(c2)c(C2CCN(CCN4CCNC4=O)CC2)cn3-c2ccc(F)cc2)nn1` yielded a melting point of 132 to 134 °C.

As for `C[C@H](Oc1cc(-c2c3ccccc3c(Br)c3sc4ccccc4c23)ccc1Br)C(=O)O`, the melting point was in the range of 132 to 134 °C.

Take `Cn1c(=O)c2c(ncn2CCCCCC#N)n(C)c1=O`: the melting point lay within 86 to 88 °C.

The compound `COC(=O)c1cc(-c2nc(CCl)c(C)o2)ccc1C` gave a melting point of 89 to 90 °C.

In turn, `O=C1N=c2ccc(Cl)cc2=N1` had a melting point of 320 °C.

In turn, `CCOC(=O)CC1(CC)OCCc2c1[nH]c1c(C)cccc21` (centres undefined) yielded a melting point of 77 to 78 °C.

For `Cc1ccc2c(c1)c(N1CCN(C(=O)c3ccco3)CC1)c(C#N)c(=O)n2C`, the melting point is 231 °C.

Turning to `COC(=O)c1ccccc1C=CC(=O)N1CCc2c([nH]c3ccccc23)C1c1ccc2c(c1)OCO2` (centres undefined), the melting point was 203 to 204 °C.

In the case of `CC1SC(=O)NN=C1c1ccc2c(c1)C(C)(C)C(=O)N2C` (centres undefined), the melting point worked out at 125 °C.

Compound `CSc1cc(CCC(=O)OC(C)(C)C)cc(-c2nc(=O)c3ccccc3s2)n1` returned a melting point of 126 °C.

With `CC(C)(C)OC(=O)/C(=C/c1ccc2ccccc2c1)C(=O)c1ccccc1O`, the melting point was 111 to 112 °C.

In turn, `CCOc1c(CN2CCCCC2)c2c(c3c1OC(C)(C)C3)C(c1cccc(NC(=O)c3ccccc3C(=O)O)c1)=NC(C)(C)C2` came in with a melting point of 155 to 157 °C.

`CN(C)C(=S)Oc1ccc(C(=O)c2cccc(C#N)c2)cc1` returned a melting point of 160 °C.

Consider `O=C(NC1N=C(c2ccccc2F)c2ccccc2-n2cnnc21)OCc1ccccc1` (centres undefined), for which the melting point was 123 °C.

For the compound `CCOc1ccccc1C=[N+]([O-])C(C)C`, the melting point stood at 59.4 °C.

Take `COC(=O)Cc1ccc(OCCNC(=O)C2Cc3ccccc3N2S(=O)(=O)c2ccc(-c3cccc(C(F)(F)F)c3)c(Cl)c2)cc1` (centres undefined): the melting point was found to be 60 °C.

As usually defined, the melting point is the temperature, or range, at which the solid turns liquid.
